Laboratory results published in patent US8080657B2, “Compounds of reverse turn mimetics and the use thereof” (Choongwae Pharma Corporation, priority 2008, dated 2011).

The molecules below were run on Wnt signaling (assay: TopFlash reporter gene bioassay in SW480 cells). Settings: Homo sapiens, SW480, 24 h, SW480 cells, 24 hours treatment, luciferase assay; read-out: IC50 for SW480 cells, TopFlash reporter gene bioassay.
Type: cell-based

Structure (SMILES) | IC50 [µM]
C=CCN1CC(=O)N2[C@@H](Cc3ccc(O)cc3)C(=O)N(Cc3cccc(Br)c3)C[C@@H]2N1C(=O)NCc1ccccc1 [Compound F] | 0.73 ± 0.08

Same assay, conditions: Homo sapiens, SW480, TopFlash reporter gene assay, inhibition of Wnt signaling; read-out: RGA, IC50 (μM) TopF

Structure (SMILES) | IC50 [µM]
C=CCN1CC(=O)N2[C@@H](Cc3ccc4[nH]ncc4c3)C(=O)N(Cc3cccc4scnc34)C[C@@H]2N1C(=O)NCc1ccccc1 (racemic) [compound 237] | 46.7 ± 6.13
C=CCN1CC(=O)N2[C@@H](Cc3ccc(O)cc3)C(=O)N(Cc3cccc4c(C(=O)C5CC5)cn(S(=O)(=O)c5ccc(C)cc5)c34)C[C@@H]2N1C(=O)NCc1ccccc1 [compound 1] | 0.081 ± 0.0086
C=CCN1CC(=O)N2[C@@H](Cc3ccc(O)cc3)C(=O)N(Cc3cccc4c(C(C)=O)cn(S(=O)(=O)c5ccc(C)cc5)c34)C[C@@H]2N1C(=O)NCc1ccccc1 [compound 2] | 0.084 ± 0.016
C=CCN1CC(=O)N2[C@@H](Cc3ccc(O)cc3)C(=O)N(Cc3cccc4c(C(C)=O)c[nH]c34)C[C@@H]2N1C(=O)NCc1ccccc1 [compound 3] | 0.098 ± 0.014
C=CCN1CC(=O)N2[C@@H](Cc3ccc(O)cc3)C(=O)N(Cc3cccc4c(C(=O)C5CC5)c[nH]c34)C[C@@H]2N1C(=O)NCc1ccccc1 [compound 4] | 0.14 ± 0.025
C=CCN1CC(=O)N2[C@@H](Cc3ccc(O)cc3)C(=O)N(Cc3cccc4c(C(C)=O)cn(S(=O)(=O)c5ccc(Cl)cc5)c34)C[C@@H]2N1C(=O)NCc1ccccc1 [compound 6] | 0.18 ± 0.076
C=CCN1CC(=O)N2[C@@H](Cc3ccc(O)cc3)C(=O)N(Cc3cccc(-c4cccnc4F)c3)C[C@@H]2N1C(=O)NCc1ccccc1 [compound 7] | 0.26 ± 0.08
C=CCN1CC(=O)N2[C@@H](Cc3ccc(O)cc3)C(=O)N(Cc3cccc4c(-c5ccccc5)c[nH]c34)C[C@@H]2N1C(=O)NCc1ccccc1 [compound 10] | 0.3 ± 0.06
C=CCN1CC(=O)N2[C@@H](Cc3ccc(O)cc3)C(=O)N(Cc3cccc4c(C#N)cn(S(=O)(=O)c5ccccc5)c34)C[C@@H]2N1C(=O)NCc1ccccc1 [compound 11] | 0.31 ± 0.09
C=CCN1CC(=O)N2[C@@H](Cc3ccc(O)cc3)C(=O)N(Cc3cccc(-c4cccnc4)c3)C[C@@H]2N1C(=O)NCc1ccccc1 [compound 12] | 0.34 ± 0.12
C=CCN1CC(=O)N2[C@@H](Cc3ccc(O)cc3)C(=O)N(Cc3ccc(F)c(Br)c3)C[C@@H]2N1C(=O)NCc1ccccc1 [compound 16] | 0.39 ± 0.05
C=CCN1CC(=O)N2[C@@H](Cc3ccc(O)cc3)C(=O)N(Cc3ccccc3SC)C[C@@H]2N1C(=O)NCc1ccccc1 [compound 17] | 0.42 ± 0.04
C=CCN1CC(=O)N2[C@@H](Cc3ccc(O)cc3)C(=O)N(Cc3cccc(-c4cccc(NC(C)=O)c4)c3)C[C@@H]2N1C(=O)NCc1ccccc1 [compound 18] | 0.42 ± 0.12
C=CCN1CC(=O)N2[C@@H](Cc3ccc(O)cc3)C(=O)N(Cc3cccc4c(Cl)c[nH]c34)C[C@@H]2N1C(=O)NCc1ccccc1 [compound 19] | 0.43 ± 0.08
C=CCN1CC(=O)N2[C@@H](Cc3ccc(O)cc3)C(=O)N(Cc3cccc4ccn(S(=O)(=O)c5ccc(Cl)cc5)c34)C[C@@H]2N1C(=O)NCc1ccccc1 [compound 20] | 0.43 ± 0.1
C=CCN1CC(=O)N2[C@@H](Cc3ccc(O)cc3)C(=O)N(Cc3csc4ccc(F)cc34)C[C@@H]2N1C(=O)NCc1ccccc1 [compound 21] | 0.45 ± 0.05

Structure (SMILES) | IC50 [µM]
C=CCN1CC(=O)N2[C@@H](Cc3ccc(O)cc3)C(=O)N(Cc3cccc(C(=O)NCC4CC4)c3)C[C@@H]2N1C(=O)NCc1ccccc1 [compound 25] | 0.52 ± 0.04
C=CCN1CC(=O)N2[C@@H](Cc3ccc(O)cc3)C(=O)N(Cc3cccc4c3oc3ccccc34)C[C@@H]2N1C(=O)NCc1ccccc1 [compound 26] | 0.52 ± 0.048
C=CCN1CC(=O)N2[C@@H](Cc3ccc(O)cc3)C(=O)N(Cc3cccc4c(-c5ccccc5)cn(S(=O)(=O)c5ccccc5)c34)C[C@@H]2N1C(=O)NCc1ccccc1 [compound 27] | 0.52 ± 0.09
C=CCN1CC(=O)N2[C@@H](Cc3ccc(O)cc3)C(=O)N(Cc3ccc(F)c(-c4cccnc4)c3)C[C@@H]2N1C(=O)NCc1ccccc1 [compound 28] | 0.52 ± 0.06
C=CCN1CC(=O)N2[C@@H](Cc3ccc(OS(N)(=O)=O)cc3)C(=O)N(Cc3cccc4c(C(C)=O)c[nH]c34)C[C@@H]2N1C(=O)NCc1ccccc1 [compound 29] | 0.53 ± 0.24
C=CCN1CC(=O)N2[C@@H](Cc3ccc(O)cc3)C(=O)N(Cc3ccccc3[N+](=O)[O-])C[C@@H]2N1C(=O)NCc1ccccc1 [compound 30] | 0.54 ± 0.06
C=CCN1CC(=O)N2[C@@H](Cc3ccc(O)cc3)C(=O)N(Cc3csc4ccc([N+](=O)[O-])cc34)C[C@@H]2N1C(=O)NCc1ccccc1 [compound 32] | 0.56 ± 0.07
C=CCN1CC(=O)N2[C@@H](Cc3ccc(O)cc3)C(=O)N(Cc3cccc(-c4ccc(F)nc4)c3)C[C@@H]2N1C(=O)NCc1ccccc1 [compound 33] | 0.56 ± 0.44
C=CCN1CC(=O)N2[C@@H](Cc3ccc(O)cc3)C(=O)N(Cc3cccc(-c4ccncc4)c3)C[C@@H]2N1C(=O)NCc1ccccc1 [compound 34] | 0.58 ± 0.132
C=CCN1CC(=O)N2[C@@H](Cc3ccc(O)cc3)C(=O)N(Cc3cccc4c3ncn4C(=O)CN)C[C@@H]2N1C(=O)NCc1ccccc1 [compound 37] | 0.6 ± 0.13
C=CCN1CC(=O)N2[C@@H](Cc3ccc(O)cc3)C(=O)N(Cc3cccc(C(=O)NC4CCCCC4)c3)C[C@@H]2N1C(=O)NCc1ccccc1 [compound 38] | 0.61 ± 0.09
C=CCN1CC(=O)N2[C@@H](Cc3ccc(O)cc3)C(=O)N(Cc3cccc(-c4ccc(N)nc4)c3)C[C@@H]2N1C(=O)NCc1ccccc1 [compound 40] | 0.63 ± 0.06
C=CCN1CC(=O)N2[C@@H](Cc3ccc(O)cc3)C(=O)N(Cc3ccc(F)c4scnc34)C[C@@H]2N1C(=O)NCc1ccc(Cl)c(Cl)c1 [compound 41] | 0.63 ± 0.09
C=CCN1CC(=O)N2[C@@H](Cc3ccc(O)cc3)C(=O)N(Cc3csc4ccc(Cl)cc34)C[C@@H]2N1C(=O)NCc1ccccc1 [compound 43] | 0.66 ± 0.06
C#Cc1ccc(CNC(=O)N2[C@H]3CN(Cc4ccc(F)c5scnc45)C(=O)[C@H](Cc4ccc(O)cc4)N3C(=O)CN2CC=C)cc1 [compound 44] | 0.67 ± 0.05

Same assay, conditions: Homo sapiens, SW480; read-out: RGA, IC50 (μM) TopF

Structure (SMILES) | IC50 [µM]
C=CCN1CC(=O)N2[C@@H](Cc3ccc(O)cc3)C(=O)N(Cc3cccc(C(=O)NCCC)c3)C[C@@H]2N1C(=O)NCc1ccccc1 [compound 9] | 0.3 ± 0.02
C=CCN1CC(=O)N2[C@@H](Cc3ccc(OP(=O)(O)O)cc3)C(=O)N(Cc3cccc4c3oc3ccccc34)C[C@@H]2N1C(=O)NCc1ccccc1 [compound 13] | 0.36 ± 0.13
C=CCN1CC(=O)N2C(Cc3ccc(OP(=O)(O)O)cc3)C(=O)N(Cc3cccc4sc(N)nc34)C[C@@H]2N1C(=O)NCc1ccccc1 (stereo partly shown) [compound 14] | 0.37 ± 0.07
C=CCN1CC(=O)N2[C@@H](Cc3ccc(OP(=O)(O)O)cc3)C(=O)N(Cc3cccc4c(-c5ccccc5)c[nH]c34)C[C@@H]2N1C(=O)NCc1ccccc1 [compound 22] | 0.45 ± 0.29
C=CCN1CC(=O)N2[C@@H](Cc3ccc(OP(=O)(O)O)cc3)C(=O)N(Cc3csc4cc(N)ccc34)C[C@@H]2N1C(=O)NCc1ccccc1 [compound 24] | 0.48 ± 0.11
C=CCN1CC(=O)N2[C@@H](Cc3ccc(OP(=O)(O)O)cc3)C(=O)N(Cc3cccc(OC)c3OC)C[C@@H]2N1C(=O)NCc1ccccc1 [compound 31] | 0.54 ± 0.08
C=CCN1CC(=O)N2[C@@H](Cc3ccc(OP(=O)(O)O)cc3)C(=O)N(Cc3csc4ccccc34)C[C@@H]2N1C(=O)NCc1ccccc1 [compound 35] | 0.59 ± 0.066
C=CCN1CC(=O)N2[C@@H](Cc3ccc(OP(=O)(O)O)cc3)C(=O)N(Cc3ccccc3SC)C[C@@H]2N1C(=O)NCc1ccccc1 [compound 42] | 0.66 ± 0.0079
